19 molecules from patent publication US20120129811A1, “TRICYCLIC INHIBITORS OF PRO-MATRIX METALLOPROTEINASE ACTIVATION” (priority 2010, published 2012) can be followed below.

The target of experiment [1] is T1, proMMP9(20-445;ΔFnII) (SEQ ID NO:6) (Homo sapiens, UniProt P14780, DEL216-390).
T1 construct: start methionine (N); made in house; host or cells: E. coli BL21(DE3) RIL
T1 sequence (P14780 with tags, fused parts or gaps DEL216-390): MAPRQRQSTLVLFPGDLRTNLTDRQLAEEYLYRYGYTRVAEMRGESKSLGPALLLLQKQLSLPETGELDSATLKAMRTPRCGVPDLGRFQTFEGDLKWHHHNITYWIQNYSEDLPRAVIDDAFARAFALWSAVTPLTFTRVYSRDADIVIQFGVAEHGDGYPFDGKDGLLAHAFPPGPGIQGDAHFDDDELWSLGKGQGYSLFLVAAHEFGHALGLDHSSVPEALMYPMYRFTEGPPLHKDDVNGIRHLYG
In words: ThermoFluor binding assay with proMMP9(20-445;ΔFnII). The procedure, abridged: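 Protein thermal stability was measured with 2.8 μM proMMP9(20-445;ΔFnII) and 50 μM 1,8-ANS in 50 mM HEPES pH 7.0, 100 mM NaCl, 0.001% Tween-20, 2.5 mM MgCl2, 300 μM CaCl2, across serial compound dilutions. Samples were heated 40–90° C at 1° C/min with fluorescence read at 500 nm. Tm was fitted, and binding was derived from thermodynamic parameters obtained by DSC and ThermoFluor.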

Experiment [2] deals with T2, proMMP9(67-444;ΔFnII) (SEQ ID NO:5) (Homo sapiens, UniProt P14780, DEL216-390).
T2 construct: start methionine (N); made in house; host or cells: E. coli BL21(DE3) RIL
T2 sequence (P14780 with tags, fused parts or gaps DEL216-390): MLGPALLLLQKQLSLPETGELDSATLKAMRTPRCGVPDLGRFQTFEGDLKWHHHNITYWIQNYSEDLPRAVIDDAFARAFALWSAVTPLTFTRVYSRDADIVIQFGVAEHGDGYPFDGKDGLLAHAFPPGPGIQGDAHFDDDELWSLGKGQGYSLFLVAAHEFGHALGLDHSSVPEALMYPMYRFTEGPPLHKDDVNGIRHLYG
In words: ThermoFluor binding assay with proMMP9(67-444;ΔFnII). The essentials: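 Thermal shift of 3.5 μM proMMP9(67-444;ΔFnII), desalted beforehand, with 50 μM 1,8-ANS in 50 mM HEPES pH 7.0, 100 mM NaCl, 2.5 mM MgCl2, 300 μM CaCl2, 0.001% Tween-20. Heated 40–90 °C at 1 °C/min, fluorescence read at 500 nm; binding fitted from Tm shifts using DSC- and ThermoFluor-derived unfolding parameters.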
On the technique in general: In DSF a fluorescence change marks the thermal transition of the protein.

Experiment [3] addresses T3, proMMP13(1-268) (SEQ ID NO:7) (Homo sapiens, UniProt P45452).
T3 construct: 6xHis (C); made in house; host or cells: HEK293 (transient, secreted)
In words: ThermoFluor binding assay with proMMP13(1-268). The procedure, abridged:
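Thermal shift of desalted proMMP13(1-268) at 3.5 μM final, in 50 mM HEPES pH 7.0, 100 mM NaCl, 0.001% Tween-20, 2.5 mM MgCl2, 300 μM CaCl2, with 25 μM 1,8-ANS. Serially diluted compounds heated 40–90° C. at 1° C./min, fluorescence read at 500±25 nm. Tm fitted; binding modeled using DSC-derived thermodynamic parameters.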

Experiment [4] addresses T4, full-length proMMP9(1-707) activation by catalytic MMP3 (Homo sapiens, UniProt P14780, R574P).
T4 construct: made in house; host or cells: proMMP9: HEK293 (secreted); MMP3: E. coli
In words: proMMP9/MMP3 P126 Activation Assay. Format: biochemical. The protocol:
proMMP9/MMP3 P126 Activation Assay
The reaction volume was 50 μL. […] Reactivity of residual MMP3 towards P-126 substrate was minimal under these conditions.

The target in experiment [5] is T5, proMMP13(1-268) activation by plasmin (Homo sapiens, UniProt P45452).
T5 construct: 6xHis (C); made in house; host or cells: HEK293 (proMMP13)
Kind of experiment: ProMMP13/Plasmin P126 Activation Assay. Format: biochemical. The protocol: ProMMP13/Plasmin P126 Activation Assay
On the day of assay, proMMP13(1-268) (SEQ ID NO:7) purified from HEK293 cells and plasmin were diluted to 160 nM and 320 nM, respectively, in assay buffer. The reaction volume was 50 μL. […] The plate was sealed and incubated for 40 min at 37° C. […] Plasmin was not reactive towards P-126 substrate under these conditions.

Where a name gives a salt, the structure may show the parent alone.

T4 sequence (P14780 20-707 R574P): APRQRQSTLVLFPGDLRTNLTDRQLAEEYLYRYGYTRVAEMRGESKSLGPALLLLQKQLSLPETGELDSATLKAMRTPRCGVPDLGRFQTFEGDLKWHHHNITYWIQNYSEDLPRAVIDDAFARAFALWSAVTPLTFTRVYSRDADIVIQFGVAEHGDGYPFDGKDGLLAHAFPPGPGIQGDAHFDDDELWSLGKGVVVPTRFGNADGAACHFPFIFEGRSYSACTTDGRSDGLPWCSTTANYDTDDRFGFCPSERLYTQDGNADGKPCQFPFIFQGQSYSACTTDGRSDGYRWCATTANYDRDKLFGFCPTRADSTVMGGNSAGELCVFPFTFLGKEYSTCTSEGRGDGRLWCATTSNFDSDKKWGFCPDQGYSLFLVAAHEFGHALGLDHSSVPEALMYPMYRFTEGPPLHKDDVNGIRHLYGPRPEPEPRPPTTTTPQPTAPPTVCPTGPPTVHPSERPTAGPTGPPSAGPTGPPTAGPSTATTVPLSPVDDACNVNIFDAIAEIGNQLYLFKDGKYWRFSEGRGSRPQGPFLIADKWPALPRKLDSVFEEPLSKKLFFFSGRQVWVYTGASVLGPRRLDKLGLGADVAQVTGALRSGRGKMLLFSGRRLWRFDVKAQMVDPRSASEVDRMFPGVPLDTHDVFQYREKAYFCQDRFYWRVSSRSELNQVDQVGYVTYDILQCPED

In general, Kd refers to the free concentration of one partner at which half of the binding sites on the other are occupied at equilibrium, for simple one-to-one binding. Low values mean higher affinity, high ones lower affinity. For orientation: IC50 means the point on the concentration scale where inhibition reaches its midpoint. Read a low IC50 as higher potency. Turning to `CCn1cnc2ccc3sc(Nc4cc(C(N)=O)ccc4OC(C)C)nc3c21` [Example 33, 3-(8-Ethyl-8H-imidazo[4′,5′:3,4]-benzo[2,1-d]thiazol-2-ylamino)-4-isopropoxy-benzamide.HCl], the Kd amounted to 86 nM in experiment [1], 490 nM in experiment [2] and 580 nM in experiment [3]. Besides, the figures for the IC50 in experiment [4] and in experiment [5] were 100 nM and 1100 nM, respectively.
For `CC(C)Oc1ccc(C(N)=O)cc1Nc1nc2c(ccc3c2cnn3C)s1` [Example 30, 4-Isopropoxy-3-(6-methyl-6H-3-thia-1,6,7-triaza-as-indacen-2-ylamino)-benzamide.HCl], the Kd worked out at 120 nM in experiment [1], 310 nM in experiment [2] and 930 nM in experiment [3]. For the same molecule, the IC50 is 190 nM in experiment [4] and 4500 nM in experiment [5].
`CC(C)Oc1ccc(C(N)=O)cc1Nc1nc2c(ccc3cnccc32)s1` [Example 90, 4-Isopropoxy-3-(thiazolo[4,5-f]isoquinolin-2-ylamino)-benzamide.TFA]: the figures for the Kd in experiment [1], in experiment [2] and in experiment [3] were 280 nM, 3000 nM and 2700 nM, respectively. In addition, the IC50 in experiment [4] stood at 200 nM; in experiment [5], 2500 nM.
Take `COc1ccc(S(C)(=O)=O)cc1Nc1nc2c(ccc3c2cnn3C)s1` [Example 92, (5-Methanesulfonyl-2-methoxy-phenyl)-(6-methyl-6H-3-thia-1,6,7-triaza-as-indacen-2-yl)-amine.HCl]: the Kd amounted to 1100 nM in experiment [1] and 410 nM in experiment [2]. Moreover, the IC50 was 130 nM in experiment [4] and around 6000 nM in experiment [5].
As for `CC(C)Oc1ccc(C(N)=O)cc1Nc1nc2c(ccc3nc(C(=O)N4CCN(C)CC4)[nH]c32)s1` [Example 26, 4-Isopropoxy-3-[7-(4-methyl-piperazine-1-carbonyl)-8H imidazo[4′,5′:3,4]benzo[2,1-d]thiazol-2-ylamino]-benzamide.HCl], the Kd in experiment [1] was found to be 850 nM; in experiment [2], 700 nM; in experiment [3], 6100 nM. The same molecule gave an IC50 in experiment [4] of 710 nM.
`COc1ccc(S(N)(=O)=O)cc1Nc1nc2c(ccc3c2ncn3C)s1` [Example 54, 4-Methoxy-3-(6-methyl-6H-imidazo[4′,5′:3,4]benzo[2,1-d]thiazol-2-ylamino)-benzenesulfonamide.HCl]: the figures for the Kd in experiment [1], in experiment [2] and in experiment [3] were 1600 nM, 1100 nM and 11000 nM, respectively. This molecule also displayed an IC50 in experiment [4] of 240 nM.
For `CC(C)Oc1ccc(C(=O)O)cc1Nc1nc2c(ccc3[nH]c(N)nc32)s1` [Example 10, 3-(7-Amino-6H-imidazo[4′,5′:3,4]benzo[2,1-d]thiazol-2-ylamino)-4-isopropoxy-benzoic acid.HCl], the Kd in experiment [1] came out at 940 nM; in experiment [2] it was 91 nM; in experiment [3], 710 nM. In experiment [4], this molecule gave an IC50 of 130 nM.
With `CC(C)Oc1ccc(F)cc1Nc1nc2c(ccc3c2ncn3C)s1` [Example 59, (5-Fluoro-2-isopropoxy-phenyl)-(6-methyl-6H-imidazo[4′,5′:3,4]-benzo[2,1-d]thiazol-2-yl)-amine.HCl], the Kd is 2000 nM in experiment [1], 680 nM in experiment [2] and 3200 nM in experiment [3]. Besides, the IC50 in experiment [4] amounted to 450 nM.
Take `COc1ccc(C(N)=O)cc1Nc1nc2c(s1)CCc1ncccc1-2` [Example 117, 3-(4,5-Dihydro-thiazolo[4,5-f]quinolin-2-ylamino)-4-methoxy-benzamide]: the equilibrium dissociation constant (Kd) in experiment [1] came out at 8800 nM; in experiment [2], 3500 nM; in experiment [3] it was 32000 nM. The molecule further showed an IC50 in experiment [4] of 6000 nM.
Take `COc1c(Nc2nc3c(ccc4c3ncn4C)s2)cc(C(N)=O)c(F)c1F` [Example 44, 2,3-Difluoro-4-methoxy-5-(6-methyl-6H-imidazo[4′,5′:3,4]-benzo[2,1-d]thiazol-2-ylamino)-benzamide.HCl]: the dissociation constant Kd in experiment [1] was found to be 25000 nM; in experiment [2], 6200 nM; in experiment [3], 9900 nM. Moreover, the IC50 in experiment [4] stood at 3800 nM.
For `COc1ccc(S(C)(=O)=O)cc1Nc1nc2c(ccc3c2ncn3C)s1` [Example 52, (5-Methanesulfonyl-2-methoxy-phenyl)-(6-methyl-6H-imidazo[4′,5′:3,4]benzo[2,1-d]thiazol-2-yl)-amine.HCl], in that order: 1400 nM, 600 nM, 2200 nM and 160 nM.
As to `Cc1nc2ccc3sc(Nc4cc(C(=O)O)ccc4OC(C)C)nc3c2s1` [Example 24, 4-Isopropoxy-3-(2-methyl-benzo[1,2-d;3,4-d′]bisthiazol-7-ylamino)-benzoic acid.HCl], the Kd in experiment [1] was found to be 1200 nM; in experiment [2], 520 nM; in experiment [3], 8400 nM. This molecule displayed an IC50 in experiment [4] of 380 nM.
The like results for `CC(C)Oc1ccc(C(N)=O)cc1Nc1nc2c(ccc3[nH]c(N4CCN(C)CC4)nc32)s1` [Example 31, 4-Isopropoxy-3-[7-(4-methyl-piperazin-1-yl)-6H-imidazo[4′,5′:3,4]benzo[2,1-d]thiazol-2-ylamino]-benzamide.HCl] were, in that order, 930 nM, 820 nM, 2300 nM and 820 nM.
On to `COc1ccc(C(N)=O)cc1Nc1nc2c(ccc3c2cnn3C)s1` [Example 95, 4-Methoxy-3-(6-methyl-6H-3-thia-1,6,7-triaza-as-indacen-2-ylamino)-benzamide.HCl], for which the Kd stood at 190 nM in experiment [1] and 360 nM in experiment [2]. Moreover, the IC50 in experiment [4] amounted to 170 nM; in experiment [5], 1800 nM.
Take `CC(C)Oc1ccc(C(N)=O)cc1Nc1nc2c(ccc3[nH]c(Cl)nc32)s1` [Example 25, 3-(7-Chloro-6H-imidazo[4′,5′:3,4]benzo[2,1-d]thiazol-2-ylamino)-4-isopropoxy-benzamide.HCl]: the figures for the Kd in experiment [1], in experiment [2] and in experiment [3] were 430 nM, 200 nM and 2700 nM, respectively. In experiment [4], this molecule had an IC50 of 490 nM.
With `COc1ccccc1Nc1nc2c(ccc3sc(N)nc32)s1` [Example 1, N^7-(2-Methoxy-phenyl)-benzo[2,1-d;3,4-d′]-bisthiazole-2,7-<diamine.TFA], the Kd in experiment [1] turned out to be 3600 nM; in experiment [2] it was 810 nM; in experiment [3], 7000 nM. In experiment [4], it took 2800 nM to reach half-maximal inhibition (IC50).
Take `CCn1c(C)nc2c3nc(Nc4cc(C(N)=O)ccc4OC(C)C)sc3ccc21` [Example 34, 3-(6-Ethyl-7-methyl-6H-imidazo[4′,5′:3,4]benzo[2,1-d]thiazol-2-ylamino)-4-isopropoxy-benzamide.HCl]: the Kd in experiment [1] amounted to 120 nM; in experiment [2], 140 nM; in experiment [3], 4000 nM. For the same molecule, inhibition in experiment [4] was half-maximal at 110 nM (IC50).
In the case of `COc1ccc(OC)c(Nc2nc3c(ccc4nc(N)sc43)s2)c1` [Example 8, N^7-(2,5-Dimethoxy-phenyl)-benzo[1,2-d;3,4-d′]-bisthiazole-2,7-diamine.TFA], the Kd in experiment [1] came to 3100 nM; in experiment [2] it was 680 nM; in experiment [3] it was 1800 nM. The IC50 in experiment [4] is 1200 nM.
Turning to `COc1ccccc1Nc1nc2c(ccc3nc(N)sc32)s1` [Example 2, N^7-(2-Methoxy-phenyl)-benzo[1,2-d;3,4-d′]-bisthiazole-2,7-diamine.TFA], the Kd in experiment [1] is 2200 nM; in experiment [2], 410 nM; in experiment [3], 8700 nM. Moreover, the IC50 in experiment [4] is 1300 nM.
